In patent publication US6358885B1, “Substituted phenylheterocyclic herbicides” (Mississippi State University, priority 1992, dated 2002):

Key:
bedstraw = test: Test B preemergence/postemergence greenhouse plant response rating 0 to 10; type: in vivo, Galium aparine; conditions: 0 to 10 scale
In short: (§1)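 Test chemicals, dissolved in a non-phytotoxic solvent, were applied to soil at planting and, at the same time, over foliage of seedlings at the one to four leaf stage.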

cheatgrass = test: as above; type: in vivo, Bromus secalinus; conditions: 0 to 10 scale
In short: as §1

cocklebur = test: as above; type: in vivo, Xanthium pensylvanicum; conditions: 0 to 10 scale
In short: as §1

cotton [1] = test: as above; type: in vivo, Gossypium hirsutum; conditions: 0 to 10 scale
In short: as §1

crabgrass = test: as above; type: in vivo, Digitaria spp.; conditions: 0 to 10 scale
In short: as §1

giant foxtail [2] = test: as above; type: in vivo, Setaria faberii; conditions: 0 to 10 scale
In short: as §1

morningglory = test: as above; type: in vivo, Ipomoea hederacea; conditions: 0 to 10 scale
In short: as §1

rape = test: as above; type: in vivo, Brassica napus; conditions: 0 to 10 scale
In short: as §1

barley = test: Test C preemergence/postemergence greenhouse plant response rating 0 to 100; type: in vivo, Hordeum vulgare; conditions: for Plant response rating Barley Igri: 125 g/ha, 0 to 100 scale
In short: (§2)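 Compounds in non-phytotoxic solvent went onto sandy loam before emergence (seeded one day earlier) or onto plants at the one-to-four leaf stage. Duck salad was treated via flood water (~2.5 cm, maintained) over silt loam.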

chickweed = test: as above; type: in vivo, Stellaria media; conditions: PREEMERGENCE
In short: as §2

cotton [3] = test: as above; type: in vivo, Gossypium hirsutum; conditions: for Plant response rating, Cotton: 125 g/ha, 0 to 100 scale
In short: as §2

giant foxtail [4] = test: as above; type: in vivo, Setaria faberii; conditions: for Plant response rating, Giant foxtail: 125 g/ha, 0 to 100 scale
In short: as §2

lambsquarters = test: as above; type: in vivo, Chenopodium album; conditions: PREEMERGENCE
In short: as §2

pigweed = test: as above; type: in vivo, Amaranthusretroflexus; conditions: for Plant response rating Pigweed: 125 g/ha, 0 to 100 scale
In short: as §2

soybean = test: as above; type: in vivo, Glycine max; conditions: for Plant response rating, Soybean: 125 g/ha, 0 to 100 scale
In short: as §2

velvetleaf = test: as above; type: in vivo, Abutilon theophrasti; conditions: for Plant response rating, Velvetleaf: 125 g/ha, 0 to 100 scale
In short: as §2

umbrella sedge = test: Test C flood test plant response rating 0 to 100; type: in vivo, Cyperus difformis
In short: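 Compounds in non-phytotoxic solvent applied preemergence to sandy loam one day after planting, postemergence at the 1–4 leaf stage, or to ~2.5 cm floodwater over silt loam.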

duck salad = test: Test C flood test plant response rating 0 to 100; type: in vivo, Heteranthera limosa
In short: as §2

[5] = POSTEMERGENCE section, flood test, Rate 2 g/ha
[6] = Rate 8 g/ha, under POSTEMERGENCE head (flood test species)
[7] = Rate 31 g/ha, under POSTEMERGENCE head (flood test species)
[8] = flood test species listed under POSTEMERGENCE, 125 g/ha, 0 to 100 scale

Fc1cc(Cl)ccc1-c1nn2c(c1Br)CCCC2 [Compound 52]
Plant response rating, Bedstraw (bedstraw; POSTEMERGENCE, Rate 50 g/ha): 10
Plant response rating, Bedstraw (bedstraw; POSTEMERGENCE, Rate 200 g/ha): 10
Plant response rating, Bedstraw (bedstraw; PREEMERGENCE, Rate 50 g/ha): 5
Plant response rating, Bedstraw (bedstraw; Rate 200 g/ha, PREEMERGENCE): 7
Plant response rating, Cheatgrass (cheatgrass; POSTEMERGENCE, Rate 50 g/ha): 4
Plant response rating, Cheatgrass (cheatgrass; POSTEMERGENCE, Rate 200 g/ha): 7
Plant response rating, Cheatgrass (cheatgrass; PREEMERGENCE, Rate 50 g/ha): 6
Plant response rating, Cheatgrass (cheatgrass; Rate 200 g/ha, PREEMERGENCE): 10
Plant response rating, Cocklebur (cocklebur; POSTEMERGENCE, Rate 50 g/ha): 6
Plant response rating, Cocklebur (cocklebur; POSTEMERGENCE, Rate 200 g/ha): 8
Plant response rating, Cocklebur (cocklebur; PREEMERGENCE, Rate 50 g/ha): 0
Plant response rating, Cocklebur (cocklebur; Rate 200 g/ha, PREEMERGENCE): 0
Plant response rating, Cotton (cotton [1]; POSTEMERGENCE, Rate 50 g/ha): 10
Plant response rating, Cotton (cotton [1]; POSTEMERGENCE, Rate 200 g/ha): 10
Plant response rating, Cotton (cotton [1]; PREEMERGENCE, Rate 50 g/ha): 0
Plant response rating, Cotton (cotton [1]; Rate 200 g/ha, PREEMERGENCE): 3
Plant response rating, Crabgrass (crabgrass; POSTEMERGENCE, Rate 50 g/ha): 6
Plant response rating, Crabgrass (crabgrass; POSTEMERGENCE, Rate 200 g/ha): 7
Plant response rating, Crabgrass (crabgrass; PREEMERGENCE, Rate 50 g/ha): 2
Plant response rating, Crabgrass (crabgrass; Rate 200 g/ha, PREEMERGENCE): 10
Plant response rating, Giant foxtail (giant foxtail [2]; POSTEMERGENCE, Rate 50 g/ha): 5
Plant response rating, Giant foxtail (giant foxtail [2]; PREEMERGENCE, Rate 50 g/ha): 9
Plant response rating, Giant foxtail (giant foxtail [2]; Rate 200 g/ha, POSTEMERGENCE): 7
Plant response rating, Giant foxtail (giant foxtail [2]; Rate 200 g/ha, PREEMERGENCE): 10
Plant response rating, Morningglory (morningglory; POSTEMERGENCE, Rate 50 g/ha): 9
Plant response rating, Morningglory (morningglory; PREEMERGENCE, Rate 50 g/ha): 0
Plant response rating, Morningglory (morningglory; Rate 200 g/ha, POSTEMERGENCE): 9
Plant response rating, Morningglory (morningglory; Rate 200 g/ha, PREEMERGENCE): 2
Plant response rating, Rape (rape; POSTEMERGENCE, Rate 50 g/ha): 8
Plant response rating, Rape (rape; PREEMERGENCE, Rate 50 g/ha): 1
Plant response rating, Rape (rape; Rate 200 g/ha, POSTEMERGENCE): 10
Plant response rating, Rape (rape; Rate 200 g/ha, PREEMERGENCE): 9
Plant response rating Barley Igri (barley; POSTEMERGENCE): 50
Plant response rating (0 to 100), Barley Igri (barley; POSTEMERGENCE, Rate 2 g/ha): 10
Plant response rating Barley Igri (barley; PREEMERGENCE): 10
Plant response rating (0 to 100), Barley Igri (barley; PREEMERGENCE, Rate 2 g/ha): 0
Plant response rating (0 to 100), Barley Igri (barley; Rate 8 g/ha, POSTEMERGENCE): 20
Plant response rating (0 to 100), Barley Igri (barley; Rate 8 g/ha, PREEMERGENCE): 0
Plant response rating (0 to 100), Barley Igri (barley; Rate 31 g/ha, POSTEMERGENCE): 40
Plant response rating (0 to 100), Barley Igri (barley; Rate 31 g/ha, PREEMERGENCE): 0
Plant response rating, Chickweed (chickweed; 125 g/ha, 0 to 100 scale): 20
Plant response rating (0 to 100), Chickweed (chickweed; Rate 2 g/ha): 0
Plant response rating (0 to 100), Chickweed (chickweed; Rate 8 g/ha): 0
Plant response rating (0 to 100), Chickweed (chickweed; Rate 31 g/ha): 0
Plant response rating, Cotton (cotton [3]; POSTEMERGENCE): 100
Plant response rating (0 to 100), Cotton (cotton [3]; POSTEMERGENCE, Rate 2 g/ha): 70
Plant response rating, Cotton (cotton [3]; PREEMERGENCE): 0
Plant response rating (0 to 100), Cotton (cotton [3]; PREEMERGENCE, Rate 2 g/ha): 0
Plant response rating (0 to 100), Cotton (cotton [3]; Rate 8 g/ha, POSTEMERGENCE): 95
Plant response rating (0 to 100), Cotton (cotton [3]; Rate 8 g/ha, PREEMERGENCE): 0
Plant response rating (0 to 100), Cotton (cotton [3]; Rate 31 g/ha, POSTEMERGENCE): 95
Plant response rating (0 to 100), Cotton (cotton [3]; Rate 31 g/ha, PREEMERGENCE): 0
Plant response rating, Giant foxtail (giant foxtail [4]; POSTEMERGENCE): 85
Plant response rating (0 to 100), Giant foxtail (giant foxtail [4]; POSTEMERGENCE, Rate 2 g/ha): 20
Plant response rating, Giant foxtail (giant foxtail [4]; PREEMERGENCE): 90
Plant response rating (0 to 100), Giant foxtail (giant foxtail [4]; PREEMERGENCE, Rate 2 g/ha): 0
Plant response rating (0 to 100), Giant foxtail (giant foxtail [4]; Rate 8 g/ha, POSTEMERGENCE): 40
Plant response rating (0 to 100), Giant foxtail (giant foxtail [4]; Rate 8 g/ha, PREEMERGENCE): 10
Plant response rating (0 to 100), Giant foxtail (giant foxtail [4]; Rate 31 g/ha, POSTEMERGENCE): 50
Plant response rating (0 to 100), Giant foxtail (giant foxtail [4]; Rate 31 g/ha, PREEMERGENCE): 30
Plant response rating Lambsquarters (lambsquarters; 125 g/ha, 0 to 100 scale): 100
Plant response rating (0 to 100), Lambsquarters (lambsquarters; Rate 2 g/ha): 0
Plant response rating (0 to 100), Lambsquarters (lambsquarters; Rate 8 g/ha): 0
Plant response rating (0 to 100), Lambsquarters (lambsquarters; Rate 31 g/ha): 50
Plant response rating Pigweed (pigweed; POSTEMERGENCE): 100
Plant response rating (0 to 100), Pigweed (pigweed; POSTEMERGENCE, Rate 2 g/ha): 20
Plant response rating Pigweed (pigweed; PREEMERGENCE): 100
Plant response rating (0 to 100), Pigweed (pigweed; PREEMERGENCE, Rate 2 g/ha): 0
Plant response rating (0 to 100), Pigweed (pigweed; Rate 8 g/ha, POSTEMERGENCE): 50
Plant response rating (0 to 100), Pigweed (pigweed; Rate 8 g/ha, PREEMERGENCE): 50
Plant response rating (0 to 100), Pigweed (pigweed; Rate 31 g/ha, POSTEMERGENCE): 50
Plant response rating (0 to 100), Pigweed (pigweed; Rate 31 g/ha, PREEMERGENCE): 100
Plant response rating, Soybean (soybean; POSTEMERGENCE): 70
Plant response rating (0 to 100), Soybean (soybean; POSTEMERGENCE, Rate 2 g/ha): 10
Plant response rating, Soybean (soybean; PREEMERGENCE): 0
Plant response rating (0 to 100), Soybean (soybean; PREEMERGENCE, Rate 2 g/ha): 0
Plant response rating (0 to 100), Soybean (soybean; Rate 8 g/ha, POSTEMERGENCE): 30
Plant response rating (0 to 100), Soybean (soybean; Rate 8 g/ha, PREEMERGENCE): 0
Plant response rating (0 to 100), Soybean (soybean; Rate 31 g/ha, POSTEMERGENCE): 40
Plant response rating (0 to 100), Soybean (soybean; Rate 31 g/ha, PREEMERGENCE): 0
Plant response rating, Velvetleaf (velvetleaf; POSTEMERGENCE): 100
Plant response rating (0 to 100), Velvetleaf (velvetleaf; POSTEMERGENCE, Rate 2 g/ha): 50
Plant response rating, Velvetleaf (velvetleaf; PREEMERGENCE): 100
Plant response rating (0 to 100), Velvetleaf (velvetleaf; PREEMERGENCE, Rate 2 g/ha): 0
Plant response rating (0 to 100), Velvetleaf (velvetleaf; Rate 8 g/ha, POSTEMERGENCE): 90
Plant response rating (0 to 100), Velvetleaf (velvetleaf; Rate 8 g/ha, PREEMERGENCE): 30
Plant response rating (0 to 100), Velvetleaf (velvetleaf; Rate 31 g/ha, POSTEMERGENCE): 100
Plant response rating (0 to 100), Velvetleaf (velvetleaf; Rate 31 g/ha, PREEMERGENCE): 100
Plant response rating (0 to 100), Umbrella sedge (umbrella sedge; [5]): 10
Plant response rating (0 to 100), Umbrella sedge (umbrella sedge; [6]): 20
Plant response rating (0 to 100), Umbrella sedge (umbrella sedge; [7]): 25
Plant response rating Umbrella sedge (umbrella sedge; [8]): 80
Plant response rating (0 to 100), Duck salad (duck salad; [5]): 0
Plant response rating (0 to 100), Duck salad (duck salad; [6]): 0
Plant response rating (0 to 100), Duck salad (duck salad; [7]): 20
Plant response rating Duck salad (duck salad; [8]): 85
